We go through three molecules from article PMC10447267, “Assessment of the potential of the MET inhibitor tepotinib to affect the pharmacokinetics of CYP3A4 and P-gp substrates” (Investigational New Drugs, 2023).

For data set [1], the target named is P-gp (Homo sapiens, UniProt P08183). Put plainly: Study 2 (NCT03492437): effect of tepotinib on dabigatran pharmacokinetics in healthy participants. Type of data set: in vivo. The method, then: (§1) Study 1 (NCT03628339) and Study 2 (NCT03492437) were both Phase 1, open-label, single sequence, 2-period studies in 12 and 20 healthy participants, respectively (Fig. 1).
Sequence of P-gp (P08183 whole entry): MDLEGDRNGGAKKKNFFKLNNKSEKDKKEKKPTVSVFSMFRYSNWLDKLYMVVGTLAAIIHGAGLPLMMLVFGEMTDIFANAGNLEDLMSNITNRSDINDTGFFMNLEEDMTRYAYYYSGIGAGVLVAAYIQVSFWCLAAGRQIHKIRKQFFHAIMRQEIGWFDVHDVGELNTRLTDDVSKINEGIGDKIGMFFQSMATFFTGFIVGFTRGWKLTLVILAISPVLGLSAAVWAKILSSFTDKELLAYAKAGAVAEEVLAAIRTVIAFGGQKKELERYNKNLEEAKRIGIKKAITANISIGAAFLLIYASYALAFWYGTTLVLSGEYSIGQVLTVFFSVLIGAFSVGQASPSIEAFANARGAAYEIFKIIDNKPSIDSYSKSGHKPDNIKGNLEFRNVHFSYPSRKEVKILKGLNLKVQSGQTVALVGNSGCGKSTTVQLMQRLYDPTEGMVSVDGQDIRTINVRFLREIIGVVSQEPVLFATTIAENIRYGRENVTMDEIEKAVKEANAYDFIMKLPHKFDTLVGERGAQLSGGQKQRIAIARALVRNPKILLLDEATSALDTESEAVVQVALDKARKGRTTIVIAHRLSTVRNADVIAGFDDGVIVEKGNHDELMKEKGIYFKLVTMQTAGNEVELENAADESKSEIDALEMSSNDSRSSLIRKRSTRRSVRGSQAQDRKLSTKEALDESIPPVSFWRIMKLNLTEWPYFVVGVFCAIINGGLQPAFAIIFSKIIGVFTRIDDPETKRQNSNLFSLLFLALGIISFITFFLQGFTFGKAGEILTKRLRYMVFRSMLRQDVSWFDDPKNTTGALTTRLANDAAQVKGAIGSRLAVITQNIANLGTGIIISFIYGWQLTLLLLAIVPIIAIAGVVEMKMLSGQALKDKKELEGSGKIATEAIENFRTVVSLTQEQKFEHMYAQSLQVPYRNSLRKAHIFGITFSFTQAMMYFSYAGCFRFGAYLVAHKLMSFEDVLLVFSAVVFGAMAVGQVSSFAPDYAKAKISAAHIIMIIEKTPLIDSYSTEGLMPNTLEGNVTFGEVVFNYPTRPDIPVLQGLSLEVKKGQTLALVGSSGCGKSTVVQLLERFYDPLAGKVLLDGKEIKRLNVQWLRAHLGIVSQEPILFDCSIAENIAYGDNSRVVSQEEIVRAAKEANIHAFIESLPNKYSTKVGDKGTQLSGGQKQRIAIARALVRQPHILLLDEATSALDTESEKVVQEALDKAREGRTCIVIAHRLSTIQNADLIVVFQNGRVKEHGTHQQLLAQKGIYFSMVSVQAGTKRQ
In Period 2 (Days 4 to 14), participants received 500 mg tepotinib QD on Days 4 to 11. […] Blood samples for trough concentrations of tepotinib were collected on Days 9 and 10. Further blood samples for tepotinib and its metabolites were also collected up to 24 h postdose on Day 10.
(§2) Parameters included maximum plasma concentration (Cmax) and time to reach Cmax (Tmax) taken directly from the observed data. Area under the plasma concentration–time curve (AUC) from time 0 to the last measured concentration (AUC0-t), AUC over the dose interval (AUCtau) and AUC extrapolated to infinity (AUC0-∞) were calculated using the mixed log/linear trapezoidal rule. Terminal elimination half-life (t1/2) was calculated as ln(2)/λz where λz is the terminal rate constant. The primary pharmacokinetic parameters in both studies were Cmax, AUC0-t and AUC0-∞.
(§3) A similar statistical approach was taken for both studies. […] Point estimates and CIs were back-transformed to the original scale.

Data set [2] deals with CYP3A4 (Homo sapiens, UniProt P08684). Put plainly: Study 1 (NCT03628339): effect of tepotinib on midazolam pharmacokinetics in healthy participants. The method, then:
as §1
In Period 2 (Days 3 to 15), participants received 500 mg tepotinib, QD 30 min after starting a continental breakfast on Days 3 to 12. On Day 13, participants received the final dose of 500 mg tepotinib 30 min after starting a standardized breakfast identical to the one on Day 1. […] Blood samples for trough concentrations of tepotinib were collected on Days 11, 12 and 13.
as §2, §3

The mark [3] stands for this setting: tepotinib + dabigatran versus dabigatran alone.
[4] abbreviates: midazolam 7.5 mg single oral dose alone, N = 12, geometric mean (geometric CV%).
The mark [5] stands for this setting: midazolam 7.5 mg with tepotinib 500 mg once daily, N = 12, geometric mean (geometric CV%).

SMILES strings stand for the structures.

Sequence of CYP3A4 (P08684 whole entry): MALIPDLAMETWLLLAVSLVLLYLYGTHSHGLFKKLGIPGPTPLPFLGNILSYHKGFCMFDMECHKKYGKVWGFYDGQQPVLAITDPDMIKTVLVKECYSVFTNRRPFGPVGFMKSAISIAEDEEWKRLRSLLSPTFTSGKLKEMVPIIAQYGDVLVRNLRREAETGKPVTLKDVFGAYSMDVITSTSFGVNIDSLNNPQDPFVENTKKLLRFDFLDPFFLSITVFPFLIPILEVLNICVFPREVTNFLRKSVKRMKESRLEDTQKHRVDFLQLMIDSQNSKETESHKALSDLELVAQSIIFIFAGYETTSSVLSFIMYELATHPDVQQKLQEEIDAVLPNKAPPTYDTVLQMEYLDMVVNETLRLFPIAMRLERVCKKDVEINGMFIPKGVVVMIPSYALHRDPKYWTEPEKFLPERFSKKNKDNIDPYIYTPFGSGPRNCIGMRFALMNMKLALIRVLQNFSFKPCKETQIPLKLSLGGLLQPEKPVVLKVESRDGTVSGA

Take `[H]/N=C(/N)c1ccc(NCc2nc3cc(C(=O)N(CCC(=O)O)c4ccccn4)ccc3n2C)cc1` [dabigatran]: the half-life – broadly, the time needed for the level to fall by half in the phase considered – in data set [1] (human, plasma, oral, read-out: Terminal half-life (converted)) was approximately 8 h. Also, the “Exposure increase to dabigatran with tepotinib” value in data set [1] (tepotinib 500 mg QD orally) was less than 2 fold. Moreover, the “Increase of dabigatran area under the curve extrapolated to infinity by tepotinib” value in data set [1] (tepotinib 500 mg once daily) is on record as 51%. The “Increase of dabigatran AUC by coadministration with tepotinib” value in data set [1] (tepotinib 500 mg once daily, compared to administration alone) was approximately 50%. In addition, in data set [1] (setting [3]), the “Ratio of Geometric LS Mean (90% CI), AUC0-t” value is listed as 151.38 (127.35, 179.93) % and the “Ratio of Geometric LS Mean (90% CI), AUC0-∞” value is reported as 144.70 (122.89, 170.39) %.
As for `OCc1ncc2n1-c1ccc(Cl)cc1C(c1ccccc1F)=NC2` [1-hydroxymidazolam], the values for the AUC0-t in data set [2] (setting [4]) and in data set [2] (setting [5]) were 30,589 (24) h*pg/mL and 32,627 (25) h*pg/mL, respectively. The “AUC0-∞” value in data set [2] (setting [4]) was 31,269 (23) h*pg/mL; in data set [2] (setting [5]), 33,372 (24) h*pg/mL. The results for the Cmax in data set [2] (setting [4]) and in data set [2] (setting [5]) were 14,909 (60) pg/mL and 15,852 (35) pg/mL, respectively. The figures for the t1/2 in data set [2] (setting [4]) and in data set [2] (setting [5]) were 6.34 (30) h and 6.90 (27) h, respectively. Further, the Tmax in data set [2] (midazolam 7.5 mg single oral dose alone, N = 12, median (min, max)) is listed as 0.500 (0.500, 2.00) h; in data set [2] (midazolam 7.5 mg with tepotinib 500 mg once daily, N = 12, median (min, max)), 0.508 (0.483, 2.00) h. Moreover, the “MR_AUC (metabolic ratio of 1-hydroxymidazolam AUC0-∞ and midazolam AUC0-∞)” value in data set [2] (midazolam alone, geometric mean (geometric CV%)) is on record as 0.286 (37) ratio; in data set [2] (midazolam with tepotinib 500 mg once daily, geometric mean (geometric CV%)), 0.302 (34) ratio.
As for `Cc1ncc2n1-c1ccc(Cl)cc1C(c1ccccc1F)=NC2` [midazolam], in data set [2] (human, plasma, oral), the Tmax was determined as 0.508 h and the half-life was approximately 5 h. Further, in data set [2] (human, plasma, po, 7.5 mg), the AUC0-t was found to be 108 ng·h/mL, the AUC(0-inf) came to 109 ng·h/mL, the Cmax worked out at 49.2 ng/mL and the Tmax was 0.5 h. Also, the t1/2 in data set [2] (setting [5]) is reported as 4.81 (41) h. Moreover, in data set [2] (tepotinib 500 mg QD orally), the “Change in exposure to midazolam with tepotinib (in words)” value is recorded as “no change in exposure”.
